Active and inactive are the calls of the source.
Tests used:
[1] = target: T1, DNA repair and recombination protein RAD54-like (Homo sapiens, UniProt Q92698); assay: RAD54 Holliday junction migration blockers – biochemical, fluorescence, cherry-picked samples, dose series, confirmation (AID 651657); assay type: functional
T1 sequence (Q92698 whole entry): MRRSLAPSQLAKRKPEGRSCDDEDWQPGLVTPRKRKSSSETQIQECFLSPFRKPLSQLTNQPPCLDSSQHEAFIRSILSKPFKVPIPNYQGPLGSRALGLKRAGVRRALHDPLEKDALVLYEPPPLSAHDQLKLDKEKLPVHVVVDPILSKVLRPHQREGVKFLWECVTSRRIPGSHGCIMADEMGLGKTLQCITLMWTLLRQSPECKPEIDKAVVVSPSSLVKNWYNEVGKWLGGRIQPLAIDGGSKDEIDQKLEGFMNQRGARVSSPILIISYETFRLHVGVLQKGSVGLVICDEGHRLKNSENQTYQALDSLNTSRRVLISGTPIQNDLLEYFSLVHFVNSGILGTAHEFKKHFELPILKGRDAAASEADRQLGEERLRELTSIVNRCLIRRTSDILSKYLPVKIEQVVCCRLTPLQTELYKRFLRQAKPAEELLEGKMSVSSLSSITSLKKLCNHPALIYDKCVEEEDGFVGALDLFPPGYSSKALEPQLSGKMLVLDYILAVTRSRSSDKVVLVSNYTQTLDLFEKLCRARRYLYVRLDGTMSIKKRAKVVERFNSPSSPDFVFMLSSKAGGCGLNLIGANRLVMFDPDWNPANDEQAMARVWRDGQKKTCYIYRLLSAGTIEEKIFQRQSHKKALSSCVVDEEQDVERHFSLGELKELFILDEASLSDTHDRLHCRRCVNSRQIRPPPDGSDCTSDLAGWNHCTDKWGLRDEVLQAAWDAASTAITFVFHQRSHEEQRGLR

[2] = target: T2, DNA repair protein RAD52 homolog (Homo sapiens, UniProt P43351); assay type: functional, biochemical
T2 sequence (P43351 whole entry): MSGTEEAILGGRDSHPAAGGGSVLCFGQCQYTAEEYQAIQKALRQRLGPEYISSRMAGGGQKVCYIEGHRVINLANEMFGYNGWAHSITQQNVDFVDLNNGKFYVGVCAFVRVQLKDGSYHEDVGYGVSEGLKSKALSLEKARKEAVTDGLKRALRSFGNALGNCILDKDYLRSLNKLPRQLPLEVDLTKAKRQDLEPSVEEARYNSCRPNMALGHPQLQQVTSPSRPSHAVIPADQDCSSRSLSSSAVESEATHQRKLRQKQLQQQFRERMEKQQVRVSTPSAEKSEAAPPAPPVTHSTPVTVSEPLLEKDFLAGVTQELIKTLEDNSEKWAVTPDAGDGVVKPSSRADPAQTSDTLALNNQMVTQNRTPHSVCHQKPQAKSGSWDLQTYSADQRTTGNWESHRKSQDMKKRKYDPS

[3] = fluconazole-exposed Candida albicans growth modulators – fluorescence, retest, confirmation (AID 2467); assay type: functional, cell-based
[4] = target: T3, Replicative DNA helicase DnaB (Mycobacterium tuberculosis, UniProt P9WMR3); assay: DnaB intein splicing inhibitors, dose response, biochemical, cell-free fluorescence (AID 449749); assay type: functional
T3 sequence (P9WMR3 whole entry): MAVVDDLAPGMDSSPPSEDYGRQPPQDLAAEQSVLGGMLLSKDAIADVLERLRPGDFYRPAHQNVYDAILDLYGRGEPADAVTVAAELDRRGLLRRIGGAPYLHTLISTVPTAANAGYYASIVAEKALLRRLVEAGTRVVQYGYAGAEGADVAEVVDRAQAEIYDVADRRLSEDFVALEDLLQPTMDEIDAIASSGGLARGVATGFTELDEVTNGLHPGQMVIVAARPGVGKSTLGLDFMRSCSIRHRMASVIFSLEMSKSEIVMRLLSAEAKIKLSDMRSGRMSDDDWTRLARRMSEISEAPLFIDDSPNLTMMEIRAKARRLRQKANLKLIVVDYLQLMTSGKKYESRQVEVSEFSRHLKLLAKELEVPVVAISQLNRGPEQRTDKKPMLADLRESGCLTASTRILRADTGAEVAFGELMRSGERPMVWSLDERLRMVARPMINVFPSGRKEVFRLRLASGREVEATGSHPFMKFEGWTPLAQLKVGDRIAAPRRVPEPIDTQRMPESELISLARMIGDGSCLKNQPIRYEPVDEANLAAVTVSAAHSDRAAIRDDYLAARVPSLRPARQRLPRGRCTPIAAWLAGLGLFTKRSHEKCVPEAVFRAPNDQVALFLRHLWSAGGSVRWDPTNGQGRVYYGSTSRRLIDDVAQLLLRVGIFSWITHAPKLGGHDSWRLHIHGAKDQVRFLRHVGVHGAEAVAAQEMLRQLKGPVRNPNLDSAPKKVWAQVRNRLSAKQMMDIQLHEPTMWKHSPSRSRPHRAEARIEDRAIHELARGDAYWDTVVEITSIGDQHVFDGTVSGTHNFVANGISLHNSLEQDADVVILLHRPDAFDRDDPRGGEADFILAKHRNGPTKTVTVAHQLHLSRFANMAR

Protein RecA = target: T4, Protein RecA (Mycobacterium tuberculosis, UniProt P9WHJ3); assay: Fluorescence Cell-Free Homogeneous Dose Retest to Identify Inhibitors of RecA-Intein Splicing Activity. [Related pubchem assays (depositor defined):AID2097, AID2223, AID489010, AID492950]; assay type: functional
T4 sequence (P9WHJ3 whole entry): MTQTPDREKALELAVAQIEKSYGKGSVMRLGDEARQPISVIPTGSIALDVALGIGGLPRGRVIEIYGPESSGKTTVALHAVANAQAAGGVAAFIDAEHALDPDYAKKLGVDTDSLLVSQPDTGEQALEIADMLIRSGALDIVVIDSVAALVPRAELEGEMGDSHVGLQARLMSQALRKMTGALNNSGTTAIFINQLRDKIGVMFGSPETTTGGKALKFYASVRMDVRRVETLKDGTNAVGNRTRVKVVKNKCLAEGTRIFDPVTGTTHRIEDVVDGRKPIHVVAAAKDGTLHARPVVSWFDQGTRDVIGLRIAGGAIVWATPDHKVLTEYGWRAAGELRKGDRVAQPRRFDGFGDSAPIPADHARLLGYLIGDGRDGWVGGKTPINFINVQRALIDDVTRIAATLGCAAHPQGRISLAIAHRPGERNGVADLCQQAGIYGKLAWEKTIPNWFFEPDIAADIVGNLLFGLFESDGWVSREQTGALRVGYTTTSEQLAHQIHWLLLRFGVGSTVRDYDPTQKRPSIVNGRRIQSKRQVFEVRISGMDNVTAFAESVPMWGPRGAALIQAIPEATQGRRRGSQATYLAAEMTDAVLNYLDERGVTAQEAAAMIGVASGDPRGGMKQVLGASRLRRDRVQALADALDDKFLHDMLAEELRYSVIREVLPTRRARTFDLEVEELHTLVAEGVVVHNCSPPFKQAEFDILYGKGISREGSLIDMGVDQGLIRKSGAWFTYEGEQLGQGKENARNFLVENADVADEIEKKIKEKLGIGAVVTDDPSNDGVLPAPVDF

[5] = Trypanosoma cruzi growth suppression in host cells – NIH3T3 host cells, beta-gal luminescence, confirmation (AID 2044); assay type: functional, cell-based;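 also: intracellular parasites grown in NIH/3T3 mouse fibroblasts as host cells; luminescent beta-galactosidase reporter signal from transgenic T. cruzi replicating inside host cells; inhibitors lower the luminescence signal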

Row | Structure (SMILES) | AC50 [1] | AC50 [2] | EC50 [3] | AC50 [4] | EC50 (Protein RecA) | EC50 [5]
1 | CCOC(=O)c1c(-c2ccc(-c3ccccc3)cc2)csc1NC(=O)CNCCN(C)C | 68 µM (active) | 5.29 µM (active) | – | – | – | –
2 | COc1cc(-c2nnc(SCc3cc(=O)oc4cc(O)c(O)cc34)o2)cc(OC)c1OC | – | – | > 38 µM (not active) | – | – | –
3 | CCCCCCCCCCOC(=O)Cn1c(COc2ccccc2)[n+](C)c2ccccc21 | – | 12.5 µM (active) | – | 3.6 µM (active) | 9.4 µM (active) | 1.6 µM (active)
4 | CC(C)[n+]1ccn(C2=C([N-]S(=O)(=O)c3ccccc3)C(=O)c3ccccc3C2=O)c1 | – | – | – | 12.3 µM (active) | 12 µM (active) | –
